# Experimental data taken from patent publication US20120101100A1 (priority 2008, published 2012).
# Biological target: S. aureus GyrB ATPase (Staphylococcus aureus, UniProt P0A0K8)
# Assay: S. aureus (SAU) GyrB ATPase inhibition, malachite green phosphate detection (E. coli GyrA + S. aureus GyrB)
# Type: biochemical
# Details: compound concentration of 1.0 μM unless otherwise noted; average value where assay was carried out more than once; read-out: S. aureus (SAU) GyrB ATPase % Inhibition
# Procedure: Compounds were tested for inhibition of GyrB ATPase activity using an ammonium molybdate/malachite green-based phosphate detection assay (Lanzetta, P. A., L. J. Alvarez, P. S. Reinach, and O. A. Candia, 1979, 100: 95-97). Assays were performed in multiwell plates in 100 μl reactions containing: 50 mM Hepes buffer pH 7.5, 75 mM ammonium acetate, 8.0 mM magnesium chloride, 1.0 mM ethylenediaminetetraacetic acid, 5% glycerol, 2 mM 1,4-Dithio-DL-threitol, 400 nM bovine serum albumin, 5 μg/ml sheared salmon sperm DNA, 1.25 nM E. coli GyrA, 1.25 nM S. aureus GyrB, 500 μM ATP, and compound in dimethylsulfoxide. Reactions were quenched with 150 μl of ammonium molybdate/malachite green detection reagent containing 1.2 mM malachite green hydrochloride, 8.5 mM ammonium molybdate tetrahydrate, and 1 M hydrochloric acid. Plates were read in an absorbance plate reader at 650 nm and percent inhibition values were calculated using dimethylsulfoxide (2%)-containing reactions as 0% inhibition and novobiocin-containing (2 μM) reactions as 100% inhibition controls. Compound potency was based on IC50 measurements determined from reactions performed in the presence of 10 different compound concentrations.
# Sequence of S. aureus GyrB ATPase (P0A0K8 whole entry): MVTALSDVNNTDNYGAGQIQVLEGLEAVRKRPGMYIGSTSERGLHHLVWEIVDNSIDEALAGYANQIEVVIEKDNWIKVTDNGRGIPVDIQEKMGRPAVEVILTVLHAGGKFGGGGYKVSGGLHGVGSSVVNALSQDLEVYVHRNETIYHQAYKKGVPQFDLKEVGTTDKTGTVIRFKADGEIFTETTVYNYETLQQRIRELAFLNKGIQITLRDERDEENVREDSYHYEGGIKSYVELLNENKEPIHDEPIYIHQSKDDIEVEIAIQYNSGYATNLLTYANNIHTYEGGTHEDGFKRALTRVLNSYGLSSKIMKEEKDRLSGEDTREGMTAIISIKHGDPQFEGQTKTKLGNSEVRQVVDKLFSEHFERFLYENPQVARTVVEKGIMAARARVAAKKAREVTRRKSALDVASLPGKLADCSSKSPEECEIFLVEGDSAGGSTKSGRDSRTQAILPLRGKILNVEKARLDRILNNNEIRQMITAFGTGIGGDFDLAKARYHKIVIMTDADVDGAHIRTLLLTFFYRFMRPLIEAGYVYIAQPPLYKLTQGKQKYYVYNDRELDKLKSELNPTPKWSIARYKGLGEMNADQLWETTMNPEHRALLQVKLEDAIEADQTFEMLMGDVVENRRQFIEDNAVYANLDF
# Sequence of S. aureus GyrB ATPase (P0AES4 whole entry, further chain): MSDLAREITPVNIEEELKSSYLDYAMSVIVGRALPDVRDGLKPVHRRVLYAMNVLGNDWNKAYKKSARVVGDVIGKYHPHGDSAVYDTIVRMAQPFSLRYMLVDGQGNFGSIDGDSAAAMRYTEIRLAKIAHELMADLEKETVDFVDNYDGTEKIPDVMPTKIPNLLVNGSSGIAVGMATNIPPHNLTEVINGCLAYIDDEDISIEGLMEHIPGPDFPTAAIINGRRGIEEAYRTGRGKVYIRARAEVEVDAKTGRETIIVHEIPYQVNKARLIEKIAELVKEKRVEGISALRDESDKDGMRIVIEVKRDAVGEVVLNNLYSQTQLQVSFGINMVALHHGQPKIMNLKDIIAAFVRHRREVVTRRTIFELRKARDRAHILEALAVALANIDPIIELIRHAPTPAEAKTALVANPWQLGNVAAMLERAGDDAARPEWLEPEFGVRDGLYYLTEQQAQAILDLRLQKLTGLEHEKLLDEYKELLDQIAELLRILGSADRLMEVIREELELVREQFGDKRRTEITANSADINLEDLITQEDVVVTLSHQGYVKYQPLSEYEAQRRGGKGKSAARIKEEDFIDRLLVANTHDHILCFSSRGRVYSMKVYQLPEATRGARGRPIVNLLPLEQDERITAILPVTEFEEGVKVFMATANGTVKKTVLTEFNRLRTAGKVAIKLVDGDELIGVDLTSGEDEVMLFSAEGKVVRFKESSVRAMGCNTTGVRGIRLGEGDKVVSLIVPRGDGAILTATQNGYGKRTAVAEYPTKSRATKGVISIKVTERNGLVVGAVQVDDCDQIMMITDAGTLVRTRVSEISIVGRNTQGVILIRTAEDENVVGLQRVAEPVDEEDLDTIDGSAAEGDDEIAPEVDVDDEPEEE
row,Compound,inhibition at 1 µM
1,"CCNC(=O)Nc1cc(-c2nc(C(F)(F)F)cs2)c(-c2cncc(-c3nnc(C(F)(F)F)[nH]3)c2)cn1 [Example 257, 1-ethyl-3-(5′-(5-(trifluoromethyl)-4H-1,2,4-triazol-3-yl)-4-(4-(trifluoromethyl)thiazol-2-yl)-3,3′-bipyridin-6-yl)urea]",102%
2,"CCNC(=O)Nc1cc(-c2nc(C(F)(F)F)cs2)c(-c2cncc(-c3nnco3)c2)cn1 [Example 272, 1-(5′-(1,3,4-oxadiazol-2-yl)-4-(4-(trifluoromethyl)thiazol-2-yl)-3,3′-bipyridin-6-yl)-3-ethylurea]",90%
3,"CCNC(=O)Nc1cc(-c2nc(C(F)(F)F)cs2)c(-c2cc(-c3nnc(C)o3)cnc2CC)cn1 [Example 73, 1-ethyl-3-(2′-ethyl-5′-(5-methyl-1,3,4-oxadiazol-2-yl)-4-(4-(trifluoromethyl)thiazol-2-yl)-3,3′-bipyridin-6-yl)urea]",97%
4,"CCNC(=O)Nc1cc(-c2nc(C(F)(F)F)cs2)c(-c2cncc(-c3nnc(CN)o3)c2)cn1 [Example 281, 1-(5′-(5-(aminomethyl)-1,3,4-oxadiazol-2-yl)-4-(4-(trifluoromethyl)thiazol-2-yl)-3,3′-bipyridin-6-yl)-3-ethylurea]",94%
5,"CCNC(=O)Nc1cc(-c2nc(C(F)(F)F)cs2)c(-c2cc[n+]([O-])c(-c3nnc(C)o3)c2)cn1 [Example 259, 6-(3-ethylureido)-2′-(5-methyl-1,3,4-oxadiazol-2-yl)-4-(4-(trifluoromethyl)thiazol-2-yl)-3,4′-bipyridine 1′-oxide]",95%
6,CCNC(=O)Nc1cc(-c2nc(C(F)(F)F)cs2)c(-c2cncc(-c3nn(C(=O)N4CCCC4)c(=O)o3)c2)cn1 [Example 159],97%
7,CCNC(=O)Nc1cc(-c2nc(C(F)(F)F)c(C(=O)NCCN3CCN(C)CC3)s2)c(-c2cncc(-c3n[nH]c(=O)o3)c2)cn1 [Example 63],96%
8,CCNC(=O)Nc1cc(N2CC(C)OC(C)C2)c(-c2cncc(-c3n[nH]c(=O)o3)c2)cn1 (centres unmarked) [Example 149],94%
9,CCNC(=O)Nc1cc(-c2nc(C(F)(F)F)cs2)c(-c2cnc(-c3n[nH]c(=O)o3)cn2)cn1 [Example 190],100%
10,CCNC(=O)Nc1cc(-c2sc(C)nc2C)c(-c2cncc(-c3n[nH]c(=O)o3)c2)cn1 [Example 147],95%
11,CCCNC(=O)Nc1cc(-c2nc(C(F)(F)F)cs2)c(-c2cc(-c3n[nH]c(=O)o3)cnc2OCCN2CCCC2)cn1 [Example 171],106%
12,"CCNC(=O)Nc1cc(-c2nc(C(F)(F)F)cs2)c(-c2cc(-c3nnc(C)o3)cnc2OC2CCNCC2)cn1 [Example 110, 1-Ethyl-3-{5′-(5-methyl-1,3,4-oxadiazol-2-yl)-2′-(piperidin-4-yloxy)-4-[4-(trifluoromethyl)-1,3-thiazol-2-yl]-3,3′-bipyridin-6-yl}urea]",95%
13,"CCCNC(=O)Nc1cc(-c2nc(C(F)(F)F)cs2)c(-c2ccnc(-c3nnc(O)o3)c2)cn1 [Example 175, 1-(2′-(5-hydroxy-1,3,4-oxadiazol-2-yl)-4-(4-(trifluoromethyl)thiazol-2-yl)-3,4′-bipyridin-6-yl)-3-propylurea]",93%
14,"CCNC(=O)Nc1cc(-c2nc(-c3ccccc3)cs2)c(-c2cc(OCC3CC3)nc(-c3n[nH]c(=O)o3)c2)cn1 [Example 85, 1-(2′-(cyclopropylmethoxy)-6′-(5-oxo-4,5-dihydro-1,3,4-oxadiazol-2-yl)-4-(4-phenylthiazol-2-yl)-3,4′-bipyridin-6-yl)-3-ethylurea]",93%
15,CCNC(=O)Nc1cc(-c2nc(C(F)(F)F)c(C)s2)c(-c2cc(-c3nnc(C)o3)cnc2OC2CCOCC2)cn1 [Example 142],96%
16,"CCNC(=O)Nc1cc(-c2cnn(CC(C)C)c2)c(-c2cncc(-c3n[nH]c(=O)o3)c2)cn1 [Example 107, 1-Ethyl-3-(4-(1-isobutl-1H-pyrazol-4-yl)-5′-(5-oxo-4,5-dihydro-1,3,4-oxadiazol-2-yl)-3,3′-bipyridin-6-yl)urea]",97%
17,CCNC(=O)Nc1cc(-c2nc(C(F)(F)F)cs2)c(-c2cncc(-c3nnc(C(C)C)o3)c2)cn1 [Example 4],99%
18,"CCNC(=O)Nc1cc(-c2nc(C(F)(F)F)cs2)c(-c2cc(OC3CCN(C)CC3)nc(-c3n[nH]c(=O)o3)c2)cn1 [Example 90, 1-ethyl-3-(2′-(1-methylpiperidin-4-yloxy)-6′-(5-oxo-4,5-dihydro-1,3,4-oxadiazol-2-yl)-4-(4-(trifluoromethyl)thiazol-2-yl)-3,4′-bipyridin-6-yl)urea]",116%

row,Compound,inhibition at 1 µM
1,"CCNC(=O)Nc1cc(-c2nc(C(F)(F)F)cs2)c(-c2cncc(-c3nnc(COC)o3)c2)cn1 [Example 270, 1-ethyl-3-(5′-(5-(methoxymethyl)-1,3,4-oxadiazol-2-yl)-4-(4-(trifluoromethyl)thiazol-2-yl)-3,3′-bipyridin-6-yl)urea]",97%
2,"CCNC(=O)Nc1cc(-c2nc(C(F)(F)F)c(C(=O)NCCN3CCOCC3)s2)c(-c2cncc(-c3n[nH]c(=O)o3)c2)cn1 [Example 61, 2-(6-(3-ethylureido)-5′-(5-oxo-4,5-dihydro-1,3,4-oxadiazol-2-yl)-3,3′-bipyridin-4-yl)-N-(2-morpholinoethyl)-4-(trifluoromethyl)thiazole-5-carboxamide]",95%
3,"CCNC(=O)Nc1cc(-c2nc(-c3ccccc3)cs2)c(-c2cc(OCC)nc(-c3n[nH]c(=O)o3)c2)cn1 [Example 77, 1-(2′-ethoxy-6′-(5-oxo-4,5-dihydro-1,3,4-oxadiazol-2-yl)-4-(4-phenylthiazol-2-yl)-3,4′-bipyridin-6-yl)-3-ethylurea]",97%
4,"CCNC(=O)Nc1cc(-c2nc(C3CCCCC3)cs2)c(-c2cncc(-c3nnc(C)o3)c2)cn1 [Example 236, 1-(4-(4-cyclohexylthiazol-2-yl)-5′-(5-methyl-1,3,4-oxadiazol-2-yl)-3,3′-bipyridin-6-yl)-3-ethylurea]",109%
5,"CCN(CC)C(=O)Nc1cc(-c2nc(C(F)(F)F)cs2)c(-c2cncc(-c3n[nH]c(=O)o3)c2)cn1 [Example 47, 1,1-diethyl-3-(5′-(5-oxo-4,5-dihydro-1,3,4-oxadiazol-2-yl)-4-(4-(trifluoromethyl)thiazol-2-yl)-3,3′-bipyridin-6-yl)urea]",72%
6,"CCNC(=O)Nc1cc(-c2nc(-c3cccnc3OCCOC)cs2)c(-c2cc(-c3nnc(C)o3)cnc2OC2CCOCC2)cn1 [Example 232, 1-ethyl-3-(4-(4-(2-(2-methoxyethoxy)pyridin-3-yl)thiazol-2-yl)-5′-(5-methyl-1,3,4-oxadiazol-2-yl)-2′-(tetrahydro-2H-pyran-4-yloxy)-3,3′-bipyridin-6-yl)urea]",99%
7,"CCNC(=O)Nc1cc(-c2nc(C(F)(F)F)cs2)c(-c2cncc(-c3nnc(C)o3)c2)cn1 [Example 1, 1-Ethyl-3-(5′-(5-methyl-1,3,4-oxadiazol-2-yl)-4-(4-(trifluoromethyl)thiazol-2-yl)-3,3′-bipyridin-6-yl)urea]",99%
8,"CCCNC(=O)Nc1cc(-c2nc(C(F)(F)F)cs2)c(-c2cc(-c3nnc(C)o3)cnc2OC2CCOCC2)cn1 [Example 169, 1-(5′-(5-Methyl-1,3,4-oxadiazol-2-yl)-2′-(tetrahydro-2H-pyran-4-yloxy)-4-(4-(trifluoromethyl)thiazol-2-yl)-3,3′-bipyridin-6-yl)-3-propylurea]",96%
9,CCNC(=O)Nc1cc(-c2nc(-c3cnn(C)c3)cs2)c(-c2cncc(-c3n[nH]c(=O)o3)n2)cn1 [Example 206],99%
10,CCNC(=O)Nc1cc(-c2nc(C(F)(F)F)cs2)c(-c2cc(-c3n[nH]c(=O)o3)cnc2OC2CCCC2)cn1 [Example 217],95%
11,CCNC(=O)Nc1cc(-c2nc(C(F)(F)F)cs2)c(-c2cncc(-c3nn(C(=O)N4CCOCC4)c(=O)o3)c2)cn1 [Example 176],98%
12,"CCNC(=O)Nc1cc(-c2nc(C(F)(F)F)cs2)c(-c2cc(OCC)nc(-c3nnc(C)o3)c2)cn1 [Example 76, 1-(2′-ethoxy-6′-(5-methyl-1,3,4-oxadiazol-2-yl)-4-(4-(trifluoromethyl)thiazol-2-yl)-3,4′-bipyridin-6-yl)-3-ethylurea]",100%
13,"CCNC(=O)Nc1cc(-c2nc(C(F)(F)F)cs2)c(-c2nc(-c3ncnn3C)c(-c3nnc(C)o3)s2)cn1 [Example 137, 1-Ethyl-3-(5-(5-(5-methyl-1,3,4-oxadiazol-2-yl)-4-(1-methyl-1H-1,2,4-triazol-5-yl)thiazol-2-yl)-4-(4-(trifluoromethyl)thiazol-2-yl)pyridin-2-yl)urea]",101%
14,CCNC(=O)Nc1cc(-c2nc(C(F)(F)F)cs2)c(-c2cc(-c3n[nH]c(=O)o3)cnc2OCCC2CCCN2C)cn1 (centres unmarked) [Example 224],94%
15,CCNC(=O)Nc1cc(-c2nc(C(F)(F)F)cs2)c(-c2cc(-c3n[nH]c(=O)o3)cnc2OCC2CCN(C)CC2)cn1 [Example 223],95%
16,CCNC(=O)Nc1cc(-c2nc(C(F)(F)F)cs2)c(-c2cnc(OC)c(-c3n[nH]c(=O)o3)c2)cn1 [Example 189],103%
17,CCNC(=O)Nc1cc(-c2nnc(-c3ccccc3)o2)c(-c2ncc(-c3nnc(C)o3)s2)cn1 [Example 230],91%
